Assay results taken from ChEMBL document CHEMBL5131564, “Discovery of Potent and Selective Receptor-Interacting Serine/Threonine Protein Kinase 2 (RIPK2) Inhibitors for the Treatment of Inflammatory Bowel Diseases (IBDs)” (J Med Chem, 2022).
The source made the active and inactive calls. The rule behind the calls is not given here.

What was measured:
[1] = target: Receptor-interacting serine/threonine-protein kinase 2 (Homo sapiens, UniProt O43353); experiment: Inhibition of human RIPK2 incubated for 120 mins in presence of [gamma33P]ATP by scintillation counting based radiometry assay
Chain of Receptor-interacting serine/threonine-protein kinase 2 (O43353 whole entry): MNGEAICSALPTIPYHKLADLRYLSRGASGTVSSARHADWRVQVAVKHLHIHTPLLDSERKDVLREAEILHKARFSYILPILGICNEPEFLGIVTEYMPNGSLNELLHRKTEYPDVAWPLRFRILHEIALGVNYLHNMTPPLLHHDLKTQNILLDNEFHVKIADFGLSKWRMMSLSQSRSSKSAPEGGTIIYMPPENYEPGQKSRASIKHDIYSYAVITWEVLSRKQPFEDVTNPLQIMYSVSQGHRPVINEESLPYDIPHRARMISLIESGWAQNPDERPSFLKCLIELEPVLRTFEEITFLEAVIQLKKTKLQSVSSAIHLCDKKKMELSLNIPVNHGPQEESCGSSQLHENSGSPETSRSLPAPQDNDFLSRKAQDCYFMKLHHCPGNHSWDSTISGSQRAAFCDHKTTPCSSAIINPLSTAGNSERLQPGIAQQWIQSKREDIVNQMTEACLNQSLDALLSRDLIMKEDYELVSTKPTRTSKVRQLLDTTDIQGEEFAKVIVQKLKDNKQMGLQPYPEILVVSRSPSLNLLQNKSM

[2] = target: T1, Receptor-interacting serine/threonine-protein kinase 1 (Homo sapiens) (UniProt Q13546); experiment: Inhibition of human RIPK1 assessed as active kinase incubated for 120 mins in presence of [gamma33P]ATP at 1000 nM by scintillation counting based radiometry assay relative to control; parameters: scale not given: the % may be the effect or the level left
T1 sequence (whole entry): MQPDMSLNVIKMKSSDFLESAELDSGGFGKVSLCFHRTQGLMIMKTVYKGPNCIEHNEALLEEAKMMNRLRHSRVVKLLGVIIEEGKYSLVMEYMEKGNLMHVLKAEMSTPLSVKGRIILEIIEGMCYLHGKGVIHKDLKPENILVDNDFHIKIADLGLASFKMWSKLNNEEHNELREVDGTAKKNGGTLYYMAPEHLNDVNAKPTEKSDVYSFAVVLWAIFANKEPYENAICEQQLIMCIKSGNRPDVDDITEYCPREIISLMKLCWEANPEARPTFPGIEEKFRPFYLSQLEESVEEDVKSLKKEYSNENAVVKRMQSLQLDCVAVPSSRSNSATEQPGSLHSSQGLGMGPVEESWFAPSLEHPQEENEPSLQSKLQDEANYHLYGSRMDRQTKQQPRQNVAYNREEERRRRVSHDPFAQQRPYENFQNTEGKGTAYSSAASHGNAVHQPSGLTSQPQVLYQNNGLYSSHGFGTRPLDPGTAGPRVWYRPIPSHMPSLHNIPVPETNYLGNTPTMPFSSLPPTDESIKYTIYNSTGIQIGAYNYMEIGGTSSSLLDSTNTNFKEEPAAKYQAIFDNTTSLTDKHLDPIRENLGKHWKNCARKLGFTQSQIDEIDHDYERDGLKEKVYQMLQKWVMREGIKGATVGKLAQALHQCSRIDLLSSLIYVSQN

[3] = Inhibition of MDP-stimulated TNFalpha production in mouse RAW264.7 cells at 100 nM incubated for 22 hrs by ELISA relative to control; type: functional
[4] = Metabolic stability in human liver microsomes assessed as half life at 1 uM by LC/MS/MS analysis; type: ADME, Microsome
[5] = Toxicity in rat H9c2 cells assessed as inhibitory rate at 10 uM relative to control; type: cell-based
[6] = target: Receptor-type tyrosine-protein kinase FLT3 (Homo sapiens) (UniProt P36888); experiment: Inhibition of human Flt3 using EAIYAAPFAKKK peptide substrate assessed as active kinase incubated for 40 mins in presence of [gamma33P]ATP at 1000 nM by scintillation counting based radiometry assay relative to control; parameters: scale not given: the % may be the effect or the level left
Chain of Receptor-type tyrosine-protein kinase FLT3 (Homo sapiens) (P36888 whole entry): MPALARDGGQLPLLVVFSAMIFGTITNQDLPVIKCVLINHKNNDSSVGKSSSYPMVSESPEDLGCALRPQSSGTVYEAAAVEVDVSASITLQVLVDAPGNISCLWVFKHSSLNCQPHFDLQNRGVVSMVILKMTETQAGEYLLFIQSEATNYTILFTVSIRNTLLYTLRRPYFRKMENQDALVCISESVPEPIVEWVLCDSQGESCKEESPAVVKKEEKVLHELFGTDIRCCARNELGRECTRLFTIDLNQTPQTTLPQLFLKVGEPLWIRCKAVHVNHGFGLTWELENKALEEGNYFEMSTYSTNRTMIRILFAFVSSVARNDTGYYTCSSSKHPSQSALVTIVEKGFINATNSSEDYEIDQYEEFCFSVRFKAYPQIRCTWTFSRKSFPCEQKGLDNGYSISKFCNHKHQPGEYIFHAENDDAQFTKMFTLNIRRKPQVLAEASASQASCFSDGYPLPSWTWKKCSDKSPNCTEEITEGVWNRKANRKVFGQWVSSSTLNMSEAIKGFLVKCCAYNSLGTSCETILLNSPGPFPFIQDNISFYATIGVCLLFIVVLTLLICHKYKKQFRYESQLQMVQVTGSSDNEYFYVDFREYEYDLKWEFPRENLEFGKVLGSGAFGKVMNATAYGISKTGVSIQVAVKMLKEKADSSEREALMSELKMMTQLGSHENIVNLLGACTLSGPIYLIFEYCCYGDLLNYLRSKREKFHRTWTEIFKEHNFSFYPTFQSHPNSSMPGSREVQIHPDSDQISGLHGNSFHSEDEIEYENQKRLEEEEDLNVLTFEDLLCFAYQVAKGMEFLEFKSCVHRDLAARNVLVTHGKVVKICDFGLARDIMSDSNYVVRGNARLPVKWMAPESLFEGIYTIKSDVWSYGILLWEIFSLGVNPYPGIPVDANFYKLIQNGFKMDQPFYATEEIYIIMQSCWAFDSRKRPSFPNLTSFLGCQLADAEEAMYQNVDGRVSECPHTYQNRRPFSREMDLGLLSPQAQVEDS

[7] = Inhibition of LPS/MDP-stimulated TNFalpha production in C57BL/6J mouse BMDM cells by ELISA relative to control; type: functional, cell-based
[8] = Toxicity in rat H9c2 cells assessed as inhibitory rate; type: cell-based
[9] = system: Mus musculus; experiment: Anti-inflammatory activity against DSS-induced acute ulcerative colitis C57BL/6 mouse model assessed as recovery of weight loss at 20 mg/kg, po for 6 consecutive days; type: functional, organism-based

Row | IC50 [1] [nM] | Activity [2] [%] | half-life at 1 µM [4] [min] | Activity [6] [%] | IC50 [7] [nM] | SMILES | inhibition at 0.1 µM [3] [%] | inhibition at 10 µM [5] [%] | IC50 [8] [nM] | Activity [9]
1 | – | 93 | – | – | – | CC(C)(C)c1ccc(-c2cn([C@H]3CC[C@@H](N)CC3)c3ncnc(N)c23)cc1 | -40 | – | – | –
2 | 6.3 | 96 | 133 | – | – | Nc1ncnc2c1c(-c1ccc(O)cc1)cn2[C@H]1CC[C@@H](N)CC1 | 75 | 61 | – | –
3 | 5.9 | 116 | > 120 | – | – | Nc1ncnc2c1c(-c1cccc(Cl)c1)cn2[C@H]1CC[C@@H](N)CC1 | 84 | 98 | – | –
4 | – | 117 | – | – | – | CC(C)Cc1ccc(-c2cn([C@H]3CC[C@@H](N)CC3)c3ncnc(N)c23)cc1 | -23 | – | – | –
5 | 5.2 | 85 | 6.3 | 58 | – | C=CCN[C@H]1CC[C@@H](n2cc(-c3ccc(OC)cc3)c3c(N)ncnc32)CC1 | 76 | – | – | –
6 | 0.8 | 119 | > 120 | – | – | Nc1ncnc2c1c(-c1ccc3c(c1)OCO3)cn2[C@H]1CC[C@@H](N)CC1 | 68 | 64 | – | –
7 | – | 101 | – | – | – | Nc1ncnc2c1c(-c1ccoc1)cn2[C@H]1CC[C@@H](N)CC1 | 13 | – | – | –
8 | 16.7 | 82 | – | 63 | – | COc1ccc(-c2cn([C@H]3CC[C@@H](NC(=O)C(C)Cl)CC3)c3ncnc(N)c23)cc1 (stereo not given in full) | 51 | – | – | –
9 | 1.6 | 125 | > 120 | – | 1.7 | Nc1ncnc2c1c(-c1ccc(F)cc1)cn2[C@H]1CC[C@@H](N)CC1 | 72 | 35 | – | –
10 | – | – | 22.4 | – | – | Cc1ccc(-c2cn([C@H]3CC[C@@H](N)CC3)c3ncnc(N)c23)cc1C | – | – | – | –
11 | 6 | 72 | – | 49 | – | CCCC(=O)N[C@H]1CC[C@@H](n2cc(-c3ccc(OC)cc3)c3c(N)ncnc32)CC1 | 31 | – | – | –
12 | 7.9 | 99 | > 120 | – | – | Cc1ccccc1-c1cn([C@H]2CC[C@@H](N)CC2)c2ncnc(N)c12 | 88 | 54 | – | –
13 | 10.8 | 77 | – | 54 | – | CCC(=O)N[C@H]1CC[C@@H](n2cc(-c3ccc(OC)cc3)c3c(N)ncnc32)CC1 | 53 | – | – | –
14 | – | – | > 120 | – | 2.3 | Cc1ccc(-c2cn([C@H]3CC[C@@H](N)CC3)c3ncnc(N)c23)c(Cl)c1 | – | – | 11400 | Active

Continued, compound first:

Row | SMILES | IC50 [1] [nM] | Activity [2] [%] | half-life at 1 µM [4] [min] | Activity [6] [%] | IC50 [7] [nM] | inhibition at 0.1 µM [3] [%] | inhibition at 10 µM [5] [%] | IC50 [8] [nM] | Activity [9]
15 | Nc1ccc(-c2cn([C@H]3CC[C@@H](N)CC3)c3ncnc(N)c23)cc1F | 4 | 112 | 69.3 | – | – | 72 | 82 | – | –
16 | Nc1ncnc2c1c(-c1ccsc1)cn2[C@H]1CC[C@@H](N)CC1 | – | 99 | – | – | – | 16 | – | – | –
17 | CCc1ccc(-c2cn([C@H]3CC[C@@H](N)CC3)c3ncnc(N)c23)cc1 | – | 97 | – | – | – | 46 | – | – | –
18 | Nc1cccc(-c2cn([C@H]3CC[C@@H](N)CC3)c3ncnc(N)c23)c1 | – | 98 | – | – | – | 16 | – | – | –
19 | COc1ccc(-c2cn([C@H]3CC[C@@H](NS(=O)(=O)C(F)(F)F)CC3)c3ncnc(N)c23)cc1 | 21.1 | 73 | – | 55 | – | -2 | – | – | –
20 | Cc1ccc(-c2cn([C@H]3CC[C@@H](N)CC3)c3ncnc(N)c23)cc1 | 2.4 | 114 | 27.4 | – | – | 99 | 28 | – | –
21 | Nc1ncnc2c1c(-c1cccc(F)c1)cn2[C@H]1CC[C@@H](N)CC1 | 6.4 | 115 | 107 | – | – | 71 | 50 | – | –
22 | COc1ccc(-c2cn([C@H]3CC[C@@H](NC(C)=O)CC3)c3ncnc(N)c23)cc1 | 11.7 | 80 | – | 57 | – | 27 | – | – | –
23 | Cc1ccc(-c2cn([C@H]3CC[C@@H](N)CC3)c3ncnc(N)c23)cc1Cl | – | – | 28.2 | – | – | – | – | – | –
24 | COc1ccc(-c2cn([C@H]3CC[C@@H](NCc4cccc(OC(F)(F)F)c4)CC3)c3ncnc(N)c23)cc1 | 18.5 | 105 | – | 86 | – | 54 | – | – | –
25 | Nc1ncnc2c1c(-c1cc(F)cc(F)c1)cn2[C@H]1CC[C@@H](N)CC1 | – | 114 | – | – | – | 56 | – | – | –
26 | Nc1ccccc1-c1cn([C@H]2CC[C@@H](N)CC2)c2ncnc(N)c12 | – | 112 | – | – | – | -35 | – | – | –
27 | COc1ccc(-c2cn([C@H]3CC[C@@H](NC(=O)C(C)(C)C)CC3)c3ncnc(N)c23)cc1 | 15.6 | 77 | – | 47 | – | 45 | – | – | –
28 | COc1ccc(-c2cn([C@H]3CC[C@@H](NCC#N)CC3)c3ncnc(N)c23)cc1 | 6.7 | 99 | 2.7 | 46 | – | 62 | – | – | –
29 | CCOc1ccc(-c2cn([C@H]3CC[C@@H](N)CC3)c3ncnc(N)c23)cc1 | – | 98 | – | – | – | -15 | – | – | –
30 | Cc1ccc(-c2nn(C(C)(C)CNC(=O)c3ccncc3)c3ncnc(N)c23)cc1 | 33.8 | 95 | 33.8 | – | 57.7 | 68 | 50 | 13100 | –
31 | COc1ccc(-c2cn([C@H]3CC[C@@H](NCc4ccccc4)CC3)c3ncnc(N)c23)cc1 | 3 | 94 | 1.6 | 70 | – | 76 | – | – | –
32 | Nc1ccc(-c2cn([C@H]3CC[C@@H](N)CC3)c3ncnc(N)c23)cc1 | – | 100 | – | – | – | 22 | – | – | –
33 | COc1ccc(-c2cn([C@H]3CC[C@@H](N)CC3)c3ncnc(N)c23)cc1 | 4.2 | 97 | 108 | 68 | 3.8 | 69 | – | – | –
34 | COc1ccc(-c2cn([C@H]3CC[C@@H](NC(=O)c4cc(OC)c(OC)c(OC)c4)CC3)c3ncnc(N)c23)cc1 | 3.9 | 87 | – | 85 | – | 49 | – | – | –
35 | Nc1ncnc2c1c(-c1ccccc1)cn2[C@H]1CC[C@@H](N)CC1 | 9 | 104 | 148 | – | – | 70 | 44 | – | –
36 | Cc1ccc(-c2cn([C@H]3CC[C@@H](N)CC3)c3ncnc(N)c23)cc1F | – | – | 26.9 | – | – | – | – | – | –
37 | CC(C)c1ccc(-c2cn([C@H]3CC[C@@H](N)CC3)c3ncnc(N)c23)cc1 | – | 95 | – | – | – | -52 | – | – | –
38 | Cc1cccc(-c2cn([C@H]3CC[C@@H](N)CC3)c3ncnc(N)c23)c1 | 10.7 | 105 | 23.7 | – | – | 83 | 18 | – | –
